In patent US20050197338A1, “Substituted pyrazole urea compounds for the treatment of inflammation” (priority 2003, published 2005) one finds IC50 data, which are given here for six compounds.

The target of this test is T1, Rat IKK-2 (Rattus norvegicus, UniProt Q9QY78).
T1 sequence (Q9QY78 1-757): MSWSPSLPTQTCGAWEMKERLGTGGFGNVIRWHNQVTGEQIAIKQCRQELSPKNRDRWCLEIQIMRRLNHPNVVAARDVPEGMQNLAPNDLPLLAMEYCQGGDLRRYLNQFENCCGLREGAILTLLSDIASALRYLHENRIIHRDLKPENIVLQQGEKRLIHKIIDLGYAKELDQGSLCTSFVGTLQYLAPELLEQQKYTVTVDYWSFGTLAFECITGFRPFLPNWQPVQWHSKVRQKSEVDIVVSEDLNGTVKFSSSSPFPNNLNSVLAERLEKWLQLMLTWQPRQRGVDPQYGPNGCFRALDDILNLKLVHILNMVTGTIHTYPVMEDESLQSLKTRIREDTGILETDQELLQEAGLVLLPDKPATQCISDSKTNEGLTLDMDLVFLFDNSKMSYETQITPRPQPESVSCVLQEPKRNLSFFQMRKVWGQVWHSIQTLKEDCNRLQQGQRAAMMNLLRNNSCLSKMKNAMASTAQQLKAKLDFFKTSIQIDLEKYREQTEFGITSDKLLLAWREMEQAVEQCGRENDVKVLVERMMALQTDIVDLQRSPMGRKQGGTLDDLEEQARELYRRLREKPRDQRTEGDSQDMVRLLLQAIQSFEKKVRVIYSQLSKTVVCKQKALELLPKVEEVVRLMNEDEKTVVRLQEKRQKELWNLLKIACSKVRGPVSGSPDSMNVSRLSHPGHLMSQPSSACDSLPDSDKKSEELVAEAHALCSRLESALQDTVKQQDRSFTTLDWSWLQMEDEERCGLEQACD
In words: Rat IKK-2 enzyme assay. The note with it: read-out: IC50 (μM) rIKK-2. The format is biochemical.
In general, IC50 refers to the concentration at which inhibition is half-maximal. Turning to `NC(=O)Nc1cn(-c2ccc(S(=O)(=O)c3ccc(F)cc3)cc2)nc1C(N)=O` [Example 204, 1-(1-(4-(4-fluorophenylsulfonyl)phenyl)-3-carbamoyl-1H-pyrazol-4-yl)urea], the IC50 was found to be 0.023 µM. As for `NC(=O)Nc1cn(-c2ccc(Sc3ccccn3)cc2)nc1C(N)=O` [Example 205, 1-(3-carbamoyl-1-(4-(pyridin-2-ylthio)phenyl)-1H-pyrazol-4-yl)urea], the IC50 is 0.258 µM. With `COc1ccc(-n2cc(NC(N)=O)c(C(N)=O)n2)cc1Cl` [Example 209, 4-[(Aminocarbonyl)amino]-1-(3-chloro-4-methoxyphenyl)-1H-pyrazole-3-carboxamide] the figure was 1.08 µM; with `NC(=O)Nc1cn(-c2ccc(I)cc2)nc1C(N)=O` [Example 215, 4-[(aminocarbonyl)amino]-1-(4-iodophenyl)-1H-pyrazole-3-carboxamide], 0.091 µM. For the compound `NC(=O)Nc1cn(-c2ccc(Br)c(F)c2)nc1C(N)=O` [Example 225, 4-[(aminocarbonyl)amino]-1-(4-bromo-3-fluorophenyl)-1H-pyrazole-3-carboxamide], the IC50 was found to be 0.292 µM. In the case of `NC(=O)Nc1cn(-c2ccc(-c3cccc(O)c3)cc2F)nc1C(N)=O` [Example 247, 4-[(aminocarbonyl)amino]-1-(3-fluoro-3′-hydroxy-1,1′-biphenyl-4-yl)-1H-pyrazole-3-carboxamide] it was 0.249 µM.
